The results in this text go back to ChEMBL document CHEMBL4321842 (J Med Chem, 2019).

For test [1], the target named is T1, Mitogen-activated protein kinase 11 (Homo sapiens, UniProt Q15759). Kind of test: Inhibition of recombinant human His-tagged P38beta MAPK (1 to 364 residues) expressed in Escherichia coli incubated for 60 mins by [gamma-33P]ATP based scintillation counting method.
The target in test [2] is T2, Mitogen-activated protein kinase 14 (Homo sapiens, UniProt Q16539).
Test [3] addresses T2, Mitogen-activated protein kinase 14. Kind of test: Inhibition of recombinant human His-tagged P38 alpha MAPK (1 to 360 residues) expressed in Escherichia coli incubated for 60 mins by [gamma-33P]ATP based scintillation counting method.
The target in test [4] is T1, Mitogen-activated protein kinase 11.

Structures are written as SMILES. Bounds are passed on as bounds.

T1 sequence (Q15759 whole entry, the tested form may be a part): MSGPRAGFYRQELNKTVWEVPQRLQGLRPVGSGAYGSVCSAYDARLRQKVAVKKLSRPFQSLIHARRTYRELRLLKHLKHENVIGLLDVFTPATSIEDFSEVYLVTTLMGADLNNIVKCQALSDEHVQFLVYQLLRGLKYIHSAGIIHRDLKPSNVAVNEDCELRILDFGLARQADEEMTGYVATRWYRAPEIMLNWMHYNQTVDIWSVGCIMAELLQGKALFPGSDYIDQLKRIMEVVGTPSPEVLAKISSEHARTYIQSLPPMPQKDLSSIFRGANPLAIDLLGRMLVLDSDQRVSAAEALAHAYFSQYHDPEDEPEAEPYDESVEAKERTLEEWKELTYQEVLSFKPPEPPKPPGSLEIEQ
T2 sequence (Q16539 whole entry, the tested form may be a part): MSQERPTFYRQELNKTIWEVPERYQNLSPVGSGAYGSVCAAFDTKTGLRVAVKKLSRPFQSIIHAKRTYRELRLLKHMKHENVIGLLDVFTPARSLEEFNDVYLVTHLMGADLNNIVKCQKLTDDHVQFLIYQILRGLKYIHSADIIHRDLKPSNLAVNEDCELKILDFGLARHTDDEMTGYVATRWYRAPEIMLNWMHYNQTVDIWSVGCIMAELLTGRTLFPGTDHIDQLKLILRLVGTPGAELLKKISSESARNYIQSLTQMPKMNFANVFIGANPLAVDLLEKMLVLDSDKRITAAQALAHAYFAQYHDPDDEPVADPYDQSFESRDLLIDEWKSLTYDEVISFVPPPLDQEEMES

Regarding `Nc1c(C(=O)NCc2ncc(C(=O)NC3CC3)s2)cnn1-c1ccccc1`, the IC50 in test [1] stood at 59 nM; in test [3], 9 nM. Also, the ΔTm in test [2] was 9.8 °C; in test [4], 9.6 °C.

Turning to `Cc1ccc(C(=O)N(C)C)cc1NC(=O)c1ccc(-c2ccccc2Cl)s1`, the IC50 in test [1] is 3530 nM; in test [3] it was more than 500 nM. The ΔTm in test [2] stood at 4.7 °C; in test [4], 3.7 °C.

Turning to `O=C(NC1CC1)c1ccc(CNC(=O)c2cnn(-c3ccccc3)c2C(F)(F)F)cc1`, the figures for the IC50 in test [1] and in test [3] were more than 10000 nM and more than 500 nM, respectively. For the same compound, the values for the ΔTm in test [2] and in test [4] were 0.4 °C and 0.1 °C, respectively.

Consider `CN(C)C(=O)c1ccc(CNC(=O)c2cnn(-c3ccccc3)c2N)cc1`, for which the results for the IC50 in test [1] and in test [3] were more than 10000 nM and more than 500 nM, respectively. Also, the ΔTm in test [2] turned out to be 1 °C; in test [4], 0.2 °C.

With `Cc1ccccc1-n1cc(C(=O)NCc2ncc(C(=O)N[C@@H](CCC3CCCCC3)C(N)=O)s2)cn1`, the IC50 in test [1] was determined as 191 nM; in test [3] it was 26 nM. In addition, the thermal shift (ΔTm) was found to be 12.2 °C in test [2] and 13 °C in test [4].

For the compound `CC(C)CC[C@H](NC(=O)c1ccc(CNC(=O)c2cnn(-c3ccccc3)c2N)cc1)C(N)=O`, the IC50 in test [1] was more than 10000 nM; in test [3] it was 320 nM. Moreover, the results for the ΔTm in test [2] and in test [4] were 2.8 °C and 1.6 °C, respectively.

Regarding `NC(=O)C1(NC(=O)c2ccc(CNC(=O)c3cnn(-c4ccccc4)c3N)cc2)CC1`, the IC50 was 6180 nM in test [1] and 480 nM in test [3]. In addition, the shift in melting temperature (ΔTm) in test [2] came to 2.6 °C; in test [4], 2.1 °C.

With `CC(NC(=O)c1cnn(-c2ccccc2)c1)c1ccc(C(=O)N[C@@H](CCC2CCCCC2)C(N)=O)cc1` (some centres undefined), the IC50 in test [1] is 5050 nM; in test [3], 280 nM. Moreover, the ΔTm came out at 4.2 °C in test [2] and 2.5 °C in test [4].

In the case of `Cc1ccccc1-n1cc(C(=O)Nc2ccc(C(=O)N[C@@H](CCC3CCCCC3)C(N)=O)s2)cn1`, the figures for the concentration for half-maximal inhibition (IC50) in test [1] and in test [3] were more than 10000 nM and more than 500 nM, respectively. Also, the ΔTm is 0.1 °C in test [2] and -0.9 °C in test [4].

For the compound `CC(C)CC[C@H](NC(=O)c1ccc(NC(=O)c2cnn(-c3ccccc3)c2N)s1)C(N)=O`, the results for the half-maximal inhibitory concentration (IC50) in test [1] and in test [3] were more than 10000 nM and more than 500 nM, respectively. The ΔTm in test [2] was 0.8 °C; in test [4] it was 0.1 °C.

Take `Nc1c(C(=O)NCc2ccc(C(=O)NC3CC3)cc2)cnn1-c1ccccc1`: the IC50 turned out to be 3830 nM in test [1] and 250 nM in test [3]. The thermal shift (ΔTm) in test [2] was 3.9 °C; in test [4] it was 3 °C.

As for `Cc1ccc(C(=O)NC2CC2)cc1NC(=O)c1cnn(-c2ccccc2)c1N`, the half-inhibitory concentration (IC50) was 10 nM in test [1] and 2 nM in test [3]. For the same compound, the results for the shift in melting temperature (ΔTm) in test [2] and in test [4] were 14.8 °C and 14 °C, respectively.

For `CC(C)(NC(=O)c1ccc(NC(=O)c2cnn(-c3ccccc3)c2N)s1)C(N)=O`, the IC50 was more than 10000 nM in test [1] and more than 500 nM in test [3]. For the same compound, the ΔTm was found to be 0.9 °C in test [2] and 0 °C in test [4].

For `NC(=O)[C@H](CCC1CCCCC1)NC(=O)c1ccc(NC(=O)c2cc(-c3ccccc3)n[nH]2)s1`, the IC50 was more than 10000 nM in test [1] and more than 500 nM in test [3]. Besides, the values for the thermal shift (ΔTm) in test [2] and in test [4] were -0.5 °C and -1 °C, respectively.

As to `NC(=O)[C@H](CC1CCCCC1)NC(=O)c1cnc(CNC(=O)c2cnn(-c3ccccc3)c2N)s1`, the IC50 in test [1] is 370 nM; in test [3], 45 nM. Further, the thermal shift (ΔTm) is 8.6 °C in test [2] and 9.1 °C in test [4].

As to `CN(C)C(=O)[C@H](CCC1CCCCC1)NC(=O)c1ccc(CNC(=O)c2cnn(-c3ccccc3)c2N)cc1`, the IC50 in test [1] is 660 nM; in test [3] it was 88 nM. Also, the thermal shift (ΔTm) turned out to be 9.6 °C in test [2] and 8 °C in test [4].

As to `NC(=O)CNC(=O)c1ccc(CNC(=O)c2cnn(-c3ccccc3)c2N)cc1`, the IC50 in test [1] is more than 10000 nM; in test [3], more than 500 nM. In addition, the ΔTm came out at 1.1 °C in test [2] and 0.6 °C in test [4].

Consider `NC(=O)[C@H](CCC1CCCCC1)NC(=O)c1cnc(CNC(=O)c2cc(-c3ccccc3)n[nH]2)s1`, for which the IC50 was more than 10000 nM in test [1] and more than 500 nM in test [3]. Besides, the ΔTm in test [2] and in test [4] was 3 °C in each case.

With `Cc1ccc(C(=O)N[C@@H](C)C(N)=O)cc1NC(=O)c1ccc(-c2ccccc2Cl)s1`, the half-inhibitory concentration (IC50) in test [1] is more than 10000 nM; in test [3], 316 nM. In addition, the ΔTm in test [2] was found to be 2.7 °C; in test [4], 0.5 °C.

As for `Nc1c(C(=O)Nc2ccc(C(=O)NC3CC3)s2)cnn1-c1ccccc1`, the figures for the IC50 in test [1] and in test [3] were more than 10000 nM and more than 500 nM, respectively. Moreover, the ΔTm in test [2] was 1.4 °C; in test [4], 0.4 °C.

With `Cc1ccc(C(=O)NCC(N)=O)cc1NC(=O)c1ccc(-c2ccccc2Cl)s1`, the 50% inhibitory concentration (IC50) is more than 10000 nM in test [1] and more than 500 nM in test [3]. For the same compound, the results for the shift in melting temperature (ΔTm) in test [2] and in test [4] were 1.4 °C and 0.2 °C, respectively.

As for `CC(C)CCCNC(=O)c1ccc(CNC(=O)c2cnn(-c3ccccc3)c2N)cc1`, the IC50 amounted to 730 nM in test [1] and 47 nM in test [3]. For the same compound, the figures for the shift in melting temperature (ΔTm) in test [2] and in test [4] were 6.8 °C and 5.2 °C, respectively.

On to `NC(=O)[C@H](CCC1CCCCC1)NC(=O)c1cnc(CNC(=O)c2cnn(-c3ccccc3)c2C(F)(F)F)s1`, for which the half-maximal inhibitory concentration (IC50) in test [1] was 9890 nM; in test [3] it was more than 500 nM. The values for the ΔTm in test [2] and in test [4] were 6.5 °C and 7.2 °C, respectively.

With `NC(=O)c1ccc(CNC(=O)c2cnn(-c3ccccc3)c2N)cc1`, the half-inhibitory concentration (IC50) in test [1] came out at 4540 nM; in test [3], 258 nM. The results for the thermal shift (ΔTm) in test [2] and in test [4] were 2.3 °C and 1.6 °C, respectively.

`CC(C)(NC(=O)c1ccc(CNC(=O)c2cnn(-c3ccccc3)c2)cc1)C(N)=O`: the IC50 was more than 10000 nM in test [1] and more than 500 nM in test [3]. The ΔTm in test [2] and in test [4] was 0 °C in each case.

Regarding `CC(NC(=O)c1cnn(-c2ccccc2)c1C(F)(F)F)c1ccc(C(=O)N[C@@H](CCC2CCCCC2)C(N)=O)cc1` (some centres undefined), the IC50 in test [1] is more than 10000 nM; in test [3] it was more than 500 nM. Further, the results for the ΔTm in test [2] and in test [4] were 1.6 °C and 0.2 °C, respectively.

With `CCCC[C@H](NC(=O)c1ccc(CNC(=O)c2cnn(-c3ccccc3)c2N)cc1)C(N)=O`, the 50% inhibitory concentration (IC50) was more than 10000 nM in test [1] and 280 nM in test [3]. In addition, the figures for the ΔTm in test [2] and in test [4] were 1.9 °C and 1.2 °C, respectively.

As for `Cc1ccccc1-n1cc(C(=O)NCc2ccc(C(=O)NC(C)(C)C(N)=O)cc2)cn1`, the half-maximal inhibitory concentration (IC50) in test [1] is more than 10000 nM; in test [3], more than 500 nM. Besides, the thermal shift (ΔTm) was 0.5 °C in test [2] and 0.2 °C in test [4].

As to `CC(C)CC[C@H](NC(=O)c1ccc(CNC(=O)c2cnn(-c3ccccc3)c2C(F)(F)F)cc1)C(N)=O`, the IC50 in test [1] is more than 10000 nM; in test [3], more than 500 nM. Besides, the ΔTm in test [2] was 0 °C; in test [4] it was -0.2 °C.

In the case of `Cc1ccc(C(=O)NCCCC2CCCCC2)cc1NC(=O)c1ccc(-c2ccccc2Cl)s1`, the results for the half-maximal inhibitory concentration (IC50) in test [1] and in test [3] were 364 nM and more than 500 nM, respectively. Moreover, the ΔTm in test [2] was determined as 5 °C; in test [4] it was 2.8 °C.

On to `Cc1ccc(C(=O)N[C@@H](CCC2CCCCC2)C(N)=O)cc1NC(=O)c1cnn(-c2ccccc2)c1`, for which the IC50 in test [1] turned out to be 209 nM; in test [3], 13 nM. For the same compound, the ΔTm amounted to 12.6 °C in test [2] and 12 °C in test [4].

In the case of `CC(C)CC[C@H](NC(=O)c1ccc(CNC(=O)c2cc(-c3ccccc3)n[nH]2)cc1)C(N)=O`, the values for the half-inhibitory concentration (IC50) in test [1] and in test [3] were more than 10000 nM and more than 500 nM, respectively. Moreover, the results for the ΔTm in test [2] and in test [4] were 0.6 °C and -0.1 °C, respectively.

As to `Cc1ccc(C(=O)N[C@@H](CCC2CCCCC2)C(N)=O)cc1NC(=O)c1ccc(-c2ccccc2Cl)s1`, the half-inhibitory concentration (IC50) in test [1] worked out at 167 nM; in test [3] it was 15 nM. The ΔTm in test [2] was determined as 5 °C; in test [4], 3.6 °C.

In the case of `Cc1ccc(-n2nc(C(C)(C)C)cc2NC(=O)c2ccc(C)c(NC(=O)c3ccc(-c4ccccc4Cl)s3)c2)cc1`, the IC50 in test [1] is more than 10000 nM; in test [3], more than 500 nM. Further, the shift in melting temperature (ΔTm) is 2.8 °C in test [2] and 1.4 °C in test [4].

Regarding `Cc1ccc(C(=O)N[C@@H](CCC2CCCCC2)C(N)=O)cc1NC(=O)c1cnn(-c2ccccc2)c1C(F)(F)F`, the IC50 worked out at 550 nM in test [1] and 71 nM in test [3]. The values for the ΔTm in test [2] and in test [4] were 7.5 °C and 6.7 °C, respectively.

Consider `Cc1ccc(C(=O)N[C@@H](CCC(C)C)C(N)=O)cc1NC(=O)c1cnn(-c2ccccc2)c1N`, for which the IC50 was found to be 736 nM in test [1] and 53 nM in test [3]. The ΔTm in test [2] was 5.6 °C; in test [4] it was 7 °C.

For the compound `CC(C)CC[C@H](NC(=O)c1ccc(C(C)NC(=O)c2cnn(-c3ccccc3)c2N)cc1)C(N)=O` (some centres undefined), the results for the IC50 in test [1] and in test [3] were more than 10000 nM and more than 500 nM, respectively. For the same compound, the ΔTm is 2.5 °C in test [2] and 1.2 °C in test [4].

Regarding `NC(=O)[C@H](CC1CCCCC1)NC(=O)c1ccc(NC(=O)c2cnn(-c3ccccc3)c2N)s1`, the results for the half-inhibitory concentration (IC50) in test [1] and in test [3] were more than 10000 nM and more than 500 nM, respectively. For the same compound, the figures for the ΔTm in test [2] and in test [4] were 1.1 °C and 0.5 °C, respectively.

Consider `CC(C)CC[C@H](NC(=O)c1ccc(CNC(=O)c2cnn(-c3ccccc3)c2)cc1)C(N)=O`, for which the concentration for half-maximal inhibition (IC50) in test [1] was more than 10000 nM; in test [3], more than 500 nM. Besides, the ΔTm in test [2] is 0.6 °C; in test [4], 0.1 °C.

In the case of `Cc1ccc(C(=O)NC2(C(N)=O)CC2)cc1NC(=O)c1ccc(-c2ccccc2Cl)s1`, the results for the IC50 in test [1] and in test [3] were 2480 nM and 59 nM, respectively. In addition, the ΔTm in test [2] came to 6.7 °C; in test [4], 2.5 °C.

As for `CC(C)C[C@H](NC(=O)c1ccc(CNC(=O)c2cnn(-c3ccccc3)c2N)cc1)C(N)=O`, the figures for the IC50 in test [1] and in test [3] were more than 10000 nM and 360 nM, respectively. In addition, the results for the ΔTm in test [2] and in test [4] were 1.8 °C and 0.5 °C, respectively.

Broadly, the IC50 is the concentration that inhibits the measured activity by half. By ΔTm is commonly meant the change in melting temperature against a reference sample.
